Here are results for 16 molecules from patent publication US10519162B2, “6,7-dihydropyrazolo[1,5-α]pyrazin-4(5H)-one compounds and their use as negative allosteric modulators of mGluR2 receptors” (Janssen Pharmaceutica NV, priority 2014, dated 2019).

What is called ED50 is the midpoint of the dose-response relation. For orientation: melting point means the temperature, or range, at which the solid turns liquid. A word on the Emax: it is the maximal effect, on the per cent scale that the assay sets.

Data set [1] addresses T1, human mGlu2 receptor (Homo sapiens, UniProt Q14416).
T1 construct: expressed in transfected cells; host or cells: CHO cells
As to the kind of experiment: [35S]GTPγS binding assay (mGluR2 negative allosteric modulation, glutamate ~EC80 60 μM). To be noted: for GTPγS-hmGluR2 anGT Emax / Emax: maximal % inhibition relative to the control glutamate response (EC80 glutamate); for IC50: membranes from CHO cells transfected with human mGlu2 receptor, glutamate ~EC80 (60 μM), pIC50 = −log IC50 (M), read-out: GTPγS-hmGluR2 anGT pIC50 (converted); for Emax: read-out: GTPγS-hmGluR2 anGT Emax. It counts as biochemical. The protocol: 1) [^35S]GTPγS Binding Assay
[^35S]GTPγS Binding Assay
Total reaction volume was 200 μl. […] Membrane-bound radioactivity was counted in a Topcount.
A general note: GTPγS resists hydrolysis and so accumulates on activated G proteins.

The test system of data set [2] is Male Wiga Wistar rats. As to the kind of experiment: Reversal of LY-404039-induced decrease of palpebral opening in apomorphine-challenged rats (APO LY-404039). It is filed as in vivo, rat. To be noted: for ED50: Rattus norvegicus, PO (oral route), apomorphine challenged rats. The protocol: B) In Vivo Pharmacology 1) Reversal of LY-404039-Induced Decrease of Palpebral Opening in Apomorphine-Challenged Rats.
Male Wiga Wistar rats (Crl:WI; Charles River Germany; 220±40 g) were housed under standard laboratory conditions (21±2° C.; 50-65% relative humidity; light-dark cycle set at 12 h; lights on at 6.00 h) and fasted overnight prior to the start of the experiments (tap water remained available ad libitum). During the test period, they were housed in individual cages. Palpebral opening was scored every 5 min over the first hour after injection of apomorphine (1.0 mg/kg, i.v.) in animals either pretreated or not pretreated with LY-404039 (2.5 mg/kg, s.c.) at 1 h prior to the apomorphine injection. The animals were also pretreated with test compound or solvent at a predefined interval before apomorphine challenge. The score system was: (5) exophthalmos, (4) wide open, (3) open for three-quarters, (2) half open, (1) open for one-quarter, (0) closed. The scores for palpebral opening were cumulated over the 60-min observation period.
In animals receiving apomorphine alone the median palpebral opening is 43 whereas in animals receiving apomorphine and LY-404039, the median palpebral opening is 17.

Data set [3] deals with rats. As to the kind of experiment: Reversal of the effect of the mGluR2 PAM JNJ-42153605-induced inhibition of scopolamine-induced hyperlocomotion (SCOP JNJ-42153605). It counts as in vivo, rat. To be noted: Rattus norvegicus; PO (oral route); rats; reversal criterion total distance >1500 cm. In short, it runs like this: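 Rats got test compound or vehicle 60 min pre-recording, JNJ-42153605 (20 mg/kg, i.v.) 30 min pre-recording, then scopolamine (0.16 mg/kg, i.v.) just before. Total distance over the first 30 min was video-tracked; all-or-none reversal criterion: total distance >1500 cm.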

Data set [4] relates to Wiga rats. Nature of the data set: Induction of mydriasis (MYD). To be noted: Rattus norvegicus, PO (oral route), pupil diameter >25 units, 1-3 h post-administration. It counts as in vivo. The method, then: 3) Induction of Mydriasis
The pupil diameter of Wiga rats was measured with a microscopic micrometer (1 unit=1/24 mm). Criteria for drug-induced effects: pupil diameter >25 units for mydriasis (in controls: 1.9%) 1, 2 or 3 h post-administration of the test compound (wherein the maximum pupil diameter over the full 3 h period is reported).

Setting [5] is: control animals, cumulative score over 60 min.

Where only a bound is given, the exact number is not on record here.

T1 sequence (Q14416 19-872): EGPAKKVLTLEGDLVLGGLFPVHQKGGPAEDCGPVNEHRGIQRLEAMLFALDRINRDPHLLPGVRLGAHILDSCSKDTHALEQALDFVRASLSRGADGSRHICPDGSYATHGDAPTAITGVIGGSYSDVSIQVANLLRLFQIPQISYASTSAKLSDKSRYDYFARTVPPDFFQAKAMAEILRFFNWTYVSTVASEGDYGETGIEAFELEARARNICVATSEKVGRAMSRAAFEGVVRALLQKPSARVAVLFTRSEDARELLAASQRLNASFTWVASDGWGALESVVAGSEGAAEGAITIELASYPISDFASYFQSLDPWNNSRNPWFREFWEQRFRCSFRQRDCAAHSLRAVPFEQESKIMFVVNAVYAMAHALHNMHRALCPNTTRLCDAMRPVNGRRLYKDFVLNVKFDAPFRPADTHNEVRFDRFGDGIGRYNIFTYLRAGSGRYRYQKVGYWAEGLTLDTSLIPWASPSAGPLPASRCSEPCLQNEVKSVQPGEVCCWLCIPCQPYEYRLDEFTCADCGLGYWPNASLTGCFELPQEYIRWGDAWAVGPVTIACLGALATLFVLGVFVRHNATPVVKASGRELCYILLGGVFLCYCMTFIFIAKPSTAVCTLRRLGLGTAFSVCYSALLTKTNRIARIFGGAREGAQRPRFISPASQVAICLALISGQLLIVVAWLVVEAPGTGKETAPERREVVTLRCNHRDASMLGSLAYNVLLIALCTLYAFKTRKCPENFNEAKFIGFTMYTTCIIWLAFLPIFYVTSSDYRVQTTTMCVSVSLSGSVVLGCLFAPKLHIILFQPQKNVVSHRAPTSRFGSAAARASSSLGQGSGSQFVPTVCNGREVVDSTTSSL

Take `COCC1CN(c2ccc(C(F)(F)F)cc2)C(=O)c2c(NC(=O)c3ccc(N)nc3)cnn21` (single isomer, unassigned) [Co. No. 95]: the melting point came to 225.94 °C. Also, in data set [1], the “GTPγS-hmGluR2 anGT Emax” value is 114% and the IC50 is 6.31e-09 M. Further, the ED50 in data set [2] was above 2.5 mg/kg. In addition, the median effective dose (ED50) in data set [3] amounted to 1.26 mg/kg.

`Cc1cc(C(=O)Nc2cnn3c2C(=O)N(c2ccc(C(F)(F)F)cc2)C[C@@H]3C)cc(C)n1` [Co. No. 93] yielded a melting point of 154.26 °C. Also, in data set [1], the Emax turned out to be 110% and the IC50 is 2.75e-09 M. For the same molecule, the ED50 in data set [2] stood at 0.79 mg/kg. In addition, the ED50 in data set [3] was 0.5 mg/kg.

For the molecule `C[C@H]1CN(c2ccc(C(F)(F)F)c(Cl)c2)C(=O)c2c(NC(=O)c3ccc(N)nc3)cnn21` [Co. No. 1, 6-Amino-N-[(7S)-5-[3-chloro-4-(trifluoromethyl)phenyl]-7-methyl-4-oxo-6,7-dihydropyrazolo[1,5-a]pyrazin-3-yl]pyridine-3-carboxamide], the melting point was 219.62 °C. For the same molecule, in data set [1], the Emax is 109% and the IC50 was 1.15e-09 M. For the same molecule, the ED50 in data set [2] is 0.39 mg/kg. For the same molecule, in data set [3], the ED50 was 0.26 mg/kg. Also, the ED50 in data set [4] was determined as 14.1 mg/kg.

`Cc1cc(N2C[C@H](C)n3ncc(NC(=O)c4cccnc4)c3C2=O)ccc1C(F)(F)F` [Co. No. 145] showed a melting point of 120.33 °C. In data set [1], the Emax was found to be 105% and the IC50 was 4.57e-09 M. In data set [2], the ED50 turned out to be 0.5 mg/kg. For the same molecule, the 50% effective dose (ED50) in data set [3] was above 0.63 mg/kg. The molecule also registered an ED50 in data set [4] of 6.6 mg/kg.

Turning to `C[C@H]1CN(c2ccc(C(F)(F)F)c(F)c2)C(=O)c2c(NC(=O)c3cccnc3)cnn21` [Co. No. 148], the melting point was 166.06 °C. For the same molecule, in data set [1], the Emax was 105% and the IC50 is 8.51e-09 M. Besides, the ED50 in data set [2] is above 0.63 mg/kg. The ED50 in data set [3] is above 0.63 mg/kg.

`Cc1cc(C(=O)Nc2cnn3c2C(=O)N(c2ccc(C(F)(F)F)c(Cl)c2)C[C@@H]3C)ccn1` [Co. No. 12]: the melting point stood at 159.96 °C. In data set [1], the Emax was determined as 107% and the IC50 was 2.14e-09 M. In addition, the ED50 in data set [2] is 0.42 mg/kg. Moreover, in data set [3], the ED50 was 0.32 mg/kg. Further, the median effective dose (ED50) in data set [4] came out at 21.5 mg/kg.

Consider `COCC1CN(c2ccc(C(F)(F)F)cc2)C(=O)c2c(NC(=O)c3ccccc3F)cnn21` (single isomer, unassigned) [Co. No. 62a], for which the melting point turned out to be 162.59 °C. In addition, in data set [1], the “GTPγS-hmGluR2 anGT Emax” value was 111% and the IC50 is 1.26e-08 M. Moreover, in data set [2], the ED50 is above 2.5 mg/kg. Moreover, the ED50 in data set [3] is above 2.5 mg/kg.

Turning to `Cc1cncc(C(=O)Nc2cnn3c2C(=O)N(c2ccc(C(F)(F)F)c(Cl)c2)C[C@@H]3C)c1` [Co. No. 101, N-[(7S)-5-[3-chloro-4-(trifluoromethyl)phenyl]-7-methyl-4-oxo-6,7-dihydropyrazolo[1,5-a]pyrazin-3-yl]-5-methyl-pyridine-3-carboxamide], the melting point was determined as 160.38 °C. Moreover, in data set [1], the Emax worked out at 107% and the IC50 is 1.12e-09 M. Besides, in data set [2], the ED50 came out at 0.18 mg/kg. Further, in data set [3], the ED50 was above 0.63 mg/kg. In addition, the ED50 in data set [4] came to 5 mg/kg.

In turn, `Cc1cc(C(=O)Nc2cnn3c2C(=O)N(c2ccc(Cl)c(Cl)c2)C[C@@H]3C)cc(C)n1` [Co. No. 106] returned a melting point of 186.11 °C. In data set [1], the maximum response (Emax) stood at 108% and the IC50 is 1.07e-09 M. In addition, the ED50 in data set [2] was above 0.63 mg/kg. In addition, in data set [3], the ED50 was above 0.63 mg/kg.

Molecule `C[C@H]1CN(c2ccc(C(F)(F)F)cc2)C(=O)c2c(NC(=O)c3cccnc3)cnn21` [Co. No. 28] had a melting point of 152.59 °C. Further, in data set [1], the Emax is 107% and the IC50 is 7.59e-09 M. Moreover, in data set [2], the ED50 worked out at 0.78 mg/kg. In data set [3], the ED50 was 0.39 mg/kg. In data set [4], this molecule gave an ED50 of 25 mg/kg.

`Cc1cc(N2C[C@H](C)n3ncc(NC(=O)c4ccc(N)nc4)c3C2=O)ccc1C(F)(F)F` [Co. No. 4] showed a melting point of 202.24 °C. In data set [1], the Emax came to 106% and the IC50 is 1.66e-09 M. For the same molecule, the ED50 in data set [2] came out at 1.26 mg/kg. The ED50 in data set [3] was found to be 0.5 mg/kg.

Regarding `Cc1ccncc1C(=O)Nc1cnn2c1C(=O)N(c1ccc(C(F)(F)F)c(Cl)c1)C[C@@H]2C` [Co. No. 120], the melting point was 145.92 °C. Also, in data set [1], the Emax worked out at 109% and the IC50 is 1.82e-09 M. Besides, the ED50 in data set [2] is above 0.63 mg/kg. For the same molecule, the ED50 in data set [3] is above 0.63 mg/kg.

`C[C@H]1CN(c2ccc(C(F)(F)F)c(F)c2)C(=O)c2c(NC(=O)c3ccc(N)nc3)cnn21` [Co. No. 13] had a melting point of 207.25 °C. Besides, in data set [1], the Emax came out at 109% and the IC50 is 2.63e-09 M. Further, in data set [2], the 50% effective dose (ED50) is 0.2 mg/kg. Besides, in data set [3], the ED50 turned out to be 0.32 mg/kg.

As to `Cc1cc(C(=O)Nc2cnn3c2C(=O)N(c2ccc(Cl)c(Cl)c2)C[C@@H]3C)ccn1` [Co. No. 171], the melting point turned out to be 108.41 °C. Besides, in data set [1], the Emax amounted to 104% and the IC50 is 2.29e-09 M. Moreover, in data set [2], the ED50 is above 0.63 mg/kg. Also, the ED50 in data set [3] was above 0.63 mg/kg.

`Cc1cnc(N)c(C(=O)Nc2cnn3c2C(=O)N(c2ccc(C(F)(F)F)c(C)c2)C[C@@H]3C)c1` [Co. No. 197] returned a melting point of 190.13 °C. Also, in data set [1], the Emax is 108% and the IC50 is 1.32e-09 M. Moreover, in data set [3], the ED50 amounted to 0.13 mg/kg. The same molecule registered an ED50 in data set [4] above 10 mg/kg.

For the molecule `CN1CCc2cccc3c2[C@H]1Cc1ccc(O)c(O)c1-3` [Apomorphine alone, apomorphine, reference compound], in data set [2] (setting [5]), the “Palpebral opening score, occurrence score > 26 (%)” value worked out at 99.5% and the “Palpebral opening score, occurrence score > 34 (%)” value came to 95.9%. Moreover, the “Palpebral opening score, median score” value in data set [2] (control animals, scores cumulated over 60 min after apomorphine 1.0 mg/kg i.v., LY-404039 2.5 mg/kg s.c. 1 h before) is 43.
